The source of these data is US20050043300A1, “Piperazine derivatives” (priority 2003, published 2005).

A word on the IC50: it is the midpoint of a concentration-inhibition curve.

One experiment addresses interaction of gp120 with CD4 (Human immunodeficiency virus type 1 group M subtype B, UniProt P04578). In words: gp120/soluble CD4 enzyme linked immunosorbent assay (ELISA). The note with it: soluble CD4 conjugated to horseradish peroxidase, absorbance at 492 nm, read-out: IC50, inhibition of interaction of gp120 with soluble CD4. The format is binding. As for the experimental part:
Maxisorp plates (Nunc) are coated with 2 μg/well of anti-gp120 antibody (D7324). 100 μl of gp120 (dilution pre-determined by titration) is added to each well and incubated for 90 minutes at room temperature. The sample is removed and the wells are washed with PBS (phosphate buffered saline)+0.01% TWEEN® (polyethylene glycol sorbitan monolaurate). 50 μl/well of compound is added followed by 50 μl (0.1 μg) of soluble CD4 conjugated to horseradish peroxidase (Autogen Bioclear). The plate is incubated for 90 minutes at room temperature before the wells are washed again. The substrate OPD (o-phenylenediamine, Sigma) is added at a concentration of 0.5 mg/ml and the plate incubated in the dark at room temperature for 3 minutes before 3M HCl is added to stop the reaction. Compounds that inhibit the interaction of gp120 with soluble CD4 will give rise to a reduced absorbance at 492 nm.
(In general: An ELISA detects its analyte on a solid surface through an enzyme-linked reagent.)
On to `C[C@H](Oc1cccc2ncccc12)C(=O)N1CCN(C(=O)c2ccccc2)C[C@H]1C` [Example 1, (2S)-1-[(2R)-4-Benzoyl-2-methyl-piperazin-1-yl]-2-(quinolin-5-yloxy)-prooan-1-one], for which the IC50 is 920 nM. Regarding `Cc1n[nH]c2cccc(O[C@@H](C)C(=O)N3CCN(C(=O)c4ccccc4)C[C@H]3C)c12` [Example 12], the IC50 was found to be 750 nM. The same measure, in the same setting: for `CNC(=O)c1ccc(O[C@@H](C)C(=O)N2CCN(C(=O)c3ccccc3)C[C@H]2C)c(OC)c1` [Example 11] the value was 1000 nM.

Another experiment concerns HIV-1 fusion. Nature of the experiment: gp160 induced cell-cell fusion assay (HeLa P4 / CHO-Tat10 cells, β-galactosidase reporter). It counts as cell-based. The following applies: Human immunodeficiency virus 1, HeLaP4, read-out: IC50 against HIV-1 fusion. As for the experimental part: The gp160 induced cell-cell fusion assay uses a HeLa P4 cell line and a CHO-Tat10 cell line.
The HeLa P4 cell line expresses CCR5 and CD4 and has been transfected with HIV-1 LTR-β-Galactosidase. The media for this cell line is Dulbecco modified eagle's medium (D-MEM) (without L-glutamine) containing 10% foetal calf serum (FCS), 2 mM L-glutamine penicillin/streptomycin (Pen/Strep; 100 U/mL penicillin+[…] streptomycin), and 1 μg/ml puromycin.
The CHO cell line is a Tat (transcriptional trans activator)-expressing clone from a CHO JRR17.1 cell line that has been transfected with pTat puro plasmid. The media for this cell line is rich medium for mammalian cell culture originally developed at Roswell Park Memorial Institute RPMI1640 (without L-glutamine) containing 10% FCS, 2 mM L-glutamine, 0.5 mg/ml Hygromycin B and 12 μg/ml puromycin. The CHO JRR17.1 line expresses gp160 (JRFL) and is a clone that has been selected for its ability to fuse with a CCR5/CD4 expressing cell line.
Upon cell fusion, Tat present in the CHO cell is able to transactivate the HIV-1 long terminal repeat (LTR) present in the HeLa cell leading to the expression of the β-Galactosidase enzyme. This expression is then measured using a Fluor Ace™ β-Galactosidase reporter assay kit (Bio-Rad cat no. 170-3150). This kit is a quantitative fluorescent assay that determines the level of expression of β-galactosidase using 4-methylumbelliferul-galactopyranoside (MUG) as substrate. β-Galactosidase hydrolyses the fluorogenic substrate resulting in release of the fluorescent molecule 4-methylumbelliferone (4MU). Fluorescence of 4-methylumbelliferone is then measured on a fluorometer using an excitation wavelength of 360 nm and emission wavelength of 460 nm.
Compounds that inhibit fusion will give rise to a reduced signal and, following solubilisation in an appropriate solvent and dilution in culture medium, a dose-response curve for each compound can be used to calculate IC50 values.
For the compound `CC(Oc1cccc2ccccc12)C(=O)N1CCN(C(=O)c2ccccc2)C[C@H]1C` (stereo partly drawn) [Example 29], the IC50 is 134 nM.

As to `CC(Oc1ccccc1C(N)=O)C(=O)N1CCN(C(=O)c2ccccc2)C[C@H]1C` (stereo partly drawn) [Example 44], the IC50 amounted to 825 nM. For `Cc1n[nH]c2cccc(O[C@@H](C)C(=O)N3CCN(C(=O)c4ccccc4)C[C@H]3C)c12` [Example 12], the IC50 came out at 15 nM.
